Reference: patent publication US11401277B2, “Anti-bacterial heterocyclic compounds and their synthesis” (Bugworks Research, Inc., priority 2017, dated 2022)
In brackets after ≈: the same amount, converted by molar mass. Several values for one entry are separate records, joined by “and”; a condition that tells them apart may be missing. Equal entries are not always repeated.

Assays:
E. coli [ATCC25922] = assay: Neutropenic Thigh Infection Model in Rat, E. coli; type: in vivo; conditions: 10 mg/kg, i.v. bolus
[1] = system: K. pneumoniae [ATCC13883]; assay: Neutropenic Thigh Infection Model in Rat, K. pneumoniae; type: in vivo; conditions: 10 mg/kg, i.v. bolus
A. baumannii ATCC 19606 = assay: MIC studies in LB Media; type: cell-based; conditions: Acinetobacter baumannii, ATCC19606, read-out: Minimum Inhibitory Concentration in LB Media, A. ba
Experimental: (§1) Bacterial cultures that were stored as glycerol stocks at −80° C. were sub cultured on LB agar plates to obtain isolated colonies. A single colony of each strain was cultured in LB broth. The cultures were incubated at 37° C., 200 rpm till they reach an optical density (OD at 600 nm) of 0.8 to 1. […] Test compounds were dissolved in dimethyl sulfoxide (DMSO) to a stock concentration of 4 mg/ml. A two-fold dilution series of this DMSO stock was prepared in a 96 well V bottom microtitre plate from rows A to H. A 3 μL volume of these dilutions were transferred to a 96-well flat bottom microtitre assay plate. Controls to monitor the effects of DMSO and media sterility were included. Each well was inoculated with 150 μL of the above diluted culture. The plates were incubated at 37° C. overnight in a humidified incubator. The following morning, the plates were read using a Spectrophotometer at 600 nm wavelength.

[2] = system: Citrobacter freundii ATCC 43864; assay: MIC studies in LB Media; type: cell-based; conditions: ATCC43864, read-out: Minimum Inhibitory Concentration in LB Media, C. fr
Experimental: as §1

E. coli ATCC 25922 = assay: MIC studies in LB Media; type: cell-based; conditions: Escherichia coli, ATCC25922, read-out: Minimum Inhibitory Concentration in LB Media, E. co
Experimental: as §1

E. faecalis ATCC 29212 = assay: MIC studies in LB Media; type: cell-based; conditions: Enterococcus faecalis, ATCC29212, read-out: Minimum Inhibitory Concentration in LB Media, E. fa
Experimental: as §1

[3] = system: Enterobacter cloacae ATCC 13047; assay: MIC studies in LB Media; type: cell-based; conditions: ATCC13047, read-out: Minimum Inhibitory Concentration in LB Media, E. cl
Experimental: as §1

K. pneumoniae ATCC 13883 = assay: MIC studies in LB Media; type: cell-based; conditions: Klebsiella pneumoniae, ATCC13883, read-out: Minimum Inhibitory Concentration in LB Media, K. pn
Experimental: as §1

[4] = system: Morganella morganii ATCC 25830; assay: MIC studies in LB Media; type: cell-based; conditions: ATCC25830, read-out: Minimum Inhibitory Concentration in LB Media, M. mo
Experimental: as §1

P. aurigenosa ATCC 27853 = assay: MIC studies in LB Media; type: cell-based; conditions: Pseudomonas aeruginosa, ATCC27853, read-out: Minimum Inhibitory Concentration in LB Media, P. ae
Experimental: as §1

[5] = system: Proteus mirabilis ATCC 43071; assay: MIC studies in LB Media; type: cell-based; conditions: ATCC43071, read-out: Minimum Inhibitory Concentration in LB Media, P. mi
Experimental: as §1

S. aureus ATCC 29213 = assay: MIC studies in LB Media; type: cell-based; conditions: Staphylococcus aureus, ATCC29213, MIC = 90% inhibition of growth, read-out: Minimum Inhibitory Concentration in LB Media, S. au
Experimental: as §1

E. coli DNA gyrase = E. coli DNA gyrase (Escherichia coli, UniProt P0AES4+P0AES6); assay: biochemical; conditions: gel based supercoiling assay; read-out: E. coli DNA Gyrase IC50
E. coli topoisomerase IV = E. coli topoisomerase IV (Escherichia coli, UniProt P0AFI2+P20083); assay: biochemical; conditions: gel based decatenation assay; read-out: E. coli Topo IV IC50
hERG potassium channel = molecular target: T1, hERG potassium channel (Homo sapiens, UniProt Q12809); assay: hERG inhibition assay, QPatch HTX automated electrophysiology; type: cell-based; conditions: CHO cell line expressing hERG; whole-cell patch clamp, room temperature
T1 construct: Chinese Hamster Ovary cell line stably expressing the full-length hERG potassium channel; expressed in transfected cells
Experimental: The compounds were tested for inhibition of the human ether a go-go related gene (hERG) K+ channel using QPatch HTX automated electrophysiology.
Compounds of Formula I were solubilised to 100 mM in DMSO before dilution in HBPS to 300 μM.
Electrophysiological recordings were made from a Chinese Hamster Ovary cell line stably expressing the full-length hERG potassium channel. Single cell ionic currents were measured in whole-cell patch clamp configuration at room temperature (21-23° C.) using the QPatch HTX platform (Sophion). Intracellular solution contained (mM): 120 KF, 20 KCl, 10 EGTA, 10 HEPES and was buffered to pH 7.3. […] Cells were clamped at a holding potential of −80 mV. Cells were stepped to +20 mV for 2 s then −40 mV for 3 s before returning to the holding potential. This sweep was repeated 10 times at 10 s intervals. hERG currents were measured from the tail step and referenced to the holding current. Compounds were then incubated for 2 minutes prior to a second measurement of ion channel current using an identical pulse train.

[6] = individual animals, 10 hr post infection

T1 sequence (Q12809 whole entry): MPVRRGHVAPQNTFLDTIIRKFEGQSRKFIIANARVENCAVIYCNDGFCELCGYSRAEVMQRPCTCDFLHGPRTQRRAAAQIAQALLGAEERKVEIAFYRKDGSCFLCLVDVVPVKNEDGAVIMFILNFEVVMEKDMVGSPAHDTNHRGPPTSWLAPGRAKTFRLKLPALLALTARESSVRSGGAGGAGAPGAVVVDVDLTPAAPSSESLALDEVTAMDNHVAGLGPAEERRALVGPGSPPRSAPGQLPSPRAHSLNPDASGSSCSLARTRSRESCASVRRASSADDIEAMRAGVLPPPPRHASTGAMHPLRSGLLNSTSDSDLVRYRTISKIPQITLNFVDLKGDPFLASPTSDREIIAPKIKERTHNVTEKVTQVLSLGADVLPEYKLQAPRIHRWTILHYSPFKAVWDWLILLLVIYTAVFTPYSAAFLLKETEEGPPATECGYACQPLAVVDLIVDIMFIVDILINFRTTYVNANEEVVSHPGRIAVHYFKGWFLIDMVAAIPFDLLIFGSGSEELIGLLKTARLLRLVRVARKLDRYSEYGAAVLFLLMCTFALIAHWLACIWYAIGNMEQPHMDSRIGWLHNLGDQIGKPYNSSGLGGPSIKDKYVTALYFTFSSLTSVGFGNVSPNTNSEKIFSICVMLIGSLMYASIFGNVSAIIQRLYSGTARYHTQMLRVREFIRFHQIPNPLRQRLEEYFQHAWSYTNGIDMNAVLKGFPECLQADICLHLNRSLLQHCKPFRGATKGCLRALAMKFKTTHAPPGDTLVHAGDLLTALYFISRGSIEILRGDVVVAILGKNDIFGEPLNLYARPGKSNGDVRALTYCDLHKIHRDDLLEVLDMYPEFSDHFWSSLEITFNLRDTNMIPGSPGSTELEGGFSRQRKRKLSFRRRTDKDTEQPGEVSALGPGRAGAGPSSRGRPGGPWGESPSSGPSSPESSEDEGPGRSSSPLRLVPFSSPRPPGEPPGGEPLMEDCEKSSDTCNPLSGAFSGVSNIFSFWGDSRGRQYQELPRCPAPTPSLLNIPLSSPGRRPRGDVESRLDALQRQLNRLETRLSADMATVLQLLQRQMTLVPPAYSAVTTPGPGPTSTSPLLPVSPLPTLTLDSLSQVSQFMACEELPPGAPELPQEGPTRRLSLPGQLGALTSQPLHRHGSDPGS
Chain of E. coli DNA gyrase (P0AES4 whole entry, one chain of several): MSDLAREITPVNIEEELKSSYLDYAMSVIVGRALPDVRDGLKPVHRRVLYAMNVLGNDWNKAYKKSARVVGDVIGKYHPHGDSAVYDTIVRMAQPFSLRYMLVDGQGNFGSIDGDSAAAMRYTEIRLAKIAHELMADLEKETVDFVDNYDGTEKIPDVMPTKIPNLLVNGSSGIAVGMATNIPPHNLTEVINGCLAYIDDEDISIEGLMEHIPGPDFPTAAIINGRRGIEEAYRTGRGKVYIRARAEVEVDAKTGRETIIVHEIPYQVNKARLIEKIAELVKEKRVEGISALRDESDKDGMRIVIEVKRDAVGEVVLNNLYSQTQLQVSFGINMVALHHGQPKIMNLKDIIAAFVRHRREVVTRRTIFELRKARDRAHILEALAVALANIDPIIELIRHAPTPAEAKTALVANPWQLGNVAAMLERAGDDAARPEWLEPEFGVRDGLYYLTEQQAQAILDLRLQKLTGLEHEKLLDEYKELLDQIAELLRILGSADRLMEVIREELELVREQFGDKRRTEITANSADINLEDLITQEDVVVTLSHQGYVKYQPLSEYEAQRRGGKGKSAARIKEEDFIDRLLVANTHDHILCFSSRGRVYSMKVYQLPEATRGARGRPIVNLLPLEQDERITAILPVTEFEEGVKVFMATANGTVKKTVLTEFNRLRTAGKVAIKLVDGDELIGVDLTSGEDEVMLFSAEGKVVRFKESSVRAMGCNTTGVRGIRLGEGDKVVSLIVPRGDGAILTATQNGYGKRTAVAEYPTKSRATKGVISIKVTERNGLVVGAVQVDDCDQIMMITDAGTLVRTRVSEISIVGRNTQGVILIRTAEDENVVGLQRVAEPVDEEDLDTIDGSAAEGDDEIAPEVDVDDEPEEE
Chain of E. coli topoisomerase IV (P20083 whole entry): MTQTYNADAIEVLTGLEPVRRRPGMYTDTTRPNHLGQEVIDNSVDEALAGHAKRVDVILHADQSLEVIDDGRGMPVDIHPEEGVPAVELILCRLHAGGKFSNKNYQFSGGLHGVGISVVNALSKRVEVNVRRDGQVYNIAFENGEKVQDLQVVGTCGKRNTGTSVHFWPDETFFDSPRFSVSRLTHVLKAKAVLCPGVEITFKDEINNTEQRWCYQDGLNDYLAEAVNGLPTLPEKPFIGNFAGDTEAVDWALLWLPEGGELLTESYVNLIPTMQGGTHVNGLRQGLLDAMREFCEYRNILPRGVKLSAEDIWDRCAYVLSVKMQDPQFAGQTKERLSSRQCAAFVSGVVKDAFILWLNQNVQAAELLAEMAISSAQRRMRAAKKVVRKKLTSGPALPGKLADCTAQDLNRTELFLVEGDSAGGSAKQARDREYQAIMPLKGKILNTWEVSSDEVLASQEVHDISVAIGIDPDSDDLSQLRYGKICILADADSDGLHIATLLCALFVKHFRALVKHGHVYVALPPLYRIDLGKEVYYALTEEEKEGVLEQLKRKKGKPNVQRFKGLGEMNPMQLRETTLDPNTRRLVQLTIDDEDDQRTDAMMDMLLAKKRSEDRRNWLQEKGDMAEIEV
Chain of E. coli topoisomerase IV (P0AFI2 whole entry): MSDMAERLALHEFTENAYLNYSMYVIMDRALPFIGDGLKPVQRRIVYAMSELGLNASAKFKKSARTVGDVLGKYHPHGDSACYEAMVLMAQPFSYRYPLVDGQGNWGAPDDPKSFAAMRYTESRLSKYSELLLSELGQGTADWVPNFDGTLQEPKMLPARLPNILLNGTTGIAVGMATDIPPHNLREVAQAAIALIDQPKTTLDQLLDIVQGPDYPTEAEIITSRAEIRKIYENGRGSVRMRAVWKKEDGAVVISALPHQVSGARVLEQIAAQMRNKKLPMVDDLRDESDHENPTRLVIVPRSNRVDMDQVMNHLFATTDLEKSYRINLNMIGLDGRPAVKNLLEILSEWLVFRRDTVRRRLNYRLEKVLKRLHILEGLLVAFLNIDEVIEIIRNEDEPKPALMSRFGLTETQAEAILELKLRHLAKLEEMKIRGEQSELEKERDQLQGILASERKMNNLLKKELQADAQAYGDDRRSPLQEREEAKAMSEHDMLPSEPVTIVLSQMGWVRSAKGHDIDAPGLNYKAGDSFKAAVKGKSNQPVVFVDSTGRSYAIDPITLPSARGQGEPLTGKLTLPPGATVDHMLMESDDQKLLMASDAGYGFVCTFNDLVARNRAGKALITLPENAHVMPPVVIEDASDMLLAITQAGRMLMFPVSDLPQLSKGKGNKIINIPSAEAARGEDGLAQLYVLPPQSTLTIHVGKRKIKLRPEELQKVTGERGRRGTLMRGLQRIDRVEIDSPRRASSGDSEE

Structure (SMILES) | Mean Log 10 CFU/thigh reduction (wrt 2 h PI control: 5.04 Log10CFU/g thigh) (E. coli [ATCC25922]) | MEAN ± SD (Log10 CFU/g thigh) (E. coli [ATCC25922]; 10 hr post infection) | Log10 CFU/g thigh (E. coli [ATCC25922]; [6]) | MEAN ± SD (Log10 CFU/g thigh) [1] | Mean Log 10 CFU/thigh reduction (wrt 2 h PI control: 5.04 Log10CFU/g thigh) [1] | Log10 CFU/g thigh [1, 6] | MIC (A. baumannii ATCC 19606) | MIC [2] | MIC (E. coli ATCC 25922) | MIC (E. faecalis ATCC 29212) | MIC [3] | MIC (K. pneumoniae ATCC 13883) | MIC [4] | MIC (P. aurigenosa ATCC 27853) | MIC [5] | MIC (S. aureus ATCC 29213) | IC50 (E. coli DNA gyrase) | IC50 (E. coli topoisomerase IV) | IC50 (hERG potassium channel)
O=C(O)c1cn(C2CC2)c2cc(N3CCNCC3)c(F)cc2c1=O [Ciprofloxacin, ciprofloxacin, reference compound] | 2.12 Log 10 CFU/thigh | 3.73 ± 0.21 Log10 CFU/g thigh | 3.74 Log10 CFU/g thigh and 3.94 Log10 CFU/g thigh and 3.52 Log10 CFU/g thigh | 3.30 ± 0.11 Log10 CFU/g thigh | 1.74 Log 10 CFU/thigh | 3.22 Log10 CFU/g thigh and 3.25 Log10 CFU/g thigh and 3.42 Log10 CFU/g thigh |  |  |  |  |  |  |  |  |  |  |  |  | 
Cn1c(=O)ccc2nccc(OCCNC[C@H]3CN(c4ccc5c(n4)NC(=O)CO5)C(=O)O3)c21 [Compound 1, (S)-6-(5-(((2-((5-methyl-6-oxo-5,6-dihydro-1,5-naphthyridin-4-yl)oxy)ethyl)amino)methyl)-2-oxooxazolidin-3-yl)-2H-pyrido[3,2-b][1,4]oxazin-3(4H)-one] |  |  |  |  |  |  | 2 µg/mL (≈ 4.29 µM) | 1 µg/mL (≈ 2.14 µM) | 0.5 µg/mL (≈ 1.07 µM) | 1 µg/mL (≈ 2.14 µM) | 8 µg/mL (≈ 17.2 µM) | 1 µg/mL (≈ 2.14 µM) | 2 µg/mL (≈ 4.29 µM) | 4 µg/mL (≈ 8.58 µM) | 16 µg/mL (≈ 34.3 µM) | 0.25 µg/mL (≈ 0.536 µM) | < 250 nM | < 250 nM | > 100 µM
Cn1c(=O)ccc2ccc(F)c(OCCNC[C@@H]3CN(c4cnc5c(n4)NC(=O)CO5)C(=O)O3)c21 [Compound 3, (R)-6-(5-(((2-((7-fluoro-1-methyl-2-oxo-1,2-dihydroquinolin-8-yl)oxy)ethyl)amino)methyl)-2-oxooxazolidin-3-yl)-2H-pyrazino[2,3-b][1,4]oxazin-3(4H)-one] |  |  |  |  |  |  | 0.06 µg/mL (≈ 0.124 µM) | 0.06 µg/mL (≈ 0.124 µM) | 0.06 µg/mL (≈ 0.124 µM) | 0.06 µg/mL (≈ 0.124 µM) | 0.125 µg/mL (≈ 0.258 µM) | 0.06 µg/mL (≈ 0.124 µM) | 0.03 µg/mL (≈ 0.0619 µM) | 0.5 µg/mL (≈ 1.03 µM) | 0.125 µg/mL (≈ 0.258 µM) | 0.015 µg/mL (≈ 0.031 µM) | 11 nM |  | 25 µM
CC(COc1c(F)ccc2ccc(=O)n(C)c12)NC[C@H]1CN(c2cnc3c(n2)NC(=O)CO3)C(=O)O1 (stereo partly drawn) [Compound 4, 6-((5S)-5-(((1-((7-fluoro-1-methyl-2-oxo-1,2-dihydroquinolin-8-yl)oxy)propan-2-yl)amino)methyl)-2-oxooxazolidin-3-yl)-2H-pyrazino[2,3-b][1,4]oxazin-3(4H)-one] |  |  |  |  |  |  | 0.25 µg/mL (≈ 0.502 µM) | 0.5 µg/mL (≈ 1 µM) | 0.25 µg/mL (≈ 0.502 µM) | 0.125 µg/mL (≈ 0.251 µM) | 0.5 µg/mL (≈ 1 µM) | 0.25 µg/mL (≈ 0.502 µM) | 1 µg/mL (≈ 2.01 µM) | 2 µg/mL (≈ 4.01 µM) | 2 µg/mL (≈ 4.01 µM) | 0.06 µg/mL (≈ 0.12 µM) | 30 nM | < 350 nM | 36 µM
Cc1cc(=O)n(C)c2c(OCCNC[C@H]3CN(c4cnc5c(n4)NC(=O)CO5)C(=O)O3)c(F)ccc12 [Compound 5, (S)-6-(5-(((2-((7-fluoro-1,4-dimethyl-2-oxo-1,2-dihydroquinolin-8-yl)oxy)ethyl)amino)methyl)-2-oxooxazolidin-3-yl)-2H-pyrazino[2,3-b][1,4]oxazin-3(4H)-one] |  |  |  |  |  |  | 0.25 µg/mL (≈ 0.502 µM) |  | 0.06 µg/mL (≈ 0.12 µM) | 0.125 µg/mL (≈ 0.251 µM) |  | 0.25 µg/mL (≈ 0.502 µM) |  | 1 µg/mL (≈ 2.01 µM) |  | 0.125 µg/mL (≈ 0.251 µM) | 33 nM | < 187 nM | 71 µM
Cn1c(=O)ccc2ncc(Cl)c(OCCNC[C@H]3CN(c4cnc5c(n4)NC(=O)CO5)C(=O)O3)c21 [Compound 6, (S)-6-(5-(((2-((3-chloro-5-methyl-6-oxo-5,6-dihydro-1,5-naphthyridin-4-yl)oxy)ethyl)amino)methyl)-2-oxooxazolidin-3-yl)-2H-pyrazino[2,3-b][1,4]oxazin-3(4H)-one] |  |  |  |  |  |  | > 4 µg/mL | > 4 µg/mL | > 4 µg/mL | > 4 µg/mL | > 4 µg/mL | > 4 µg/mL | > 4 µg/mL | > 4 µg/mL | > 4 µg/mL | > 4 µg/mL | 6330 nM | 17700 nM | 
Cn1c(=O)cnc2ccc(F)c(OCCNC[C@@H]3CN(c4cnc5c(n4)NC(=O)CO5)C(=O)O3)c21 [Compound 8, (R)-6-(5-(((2-((6-fluoro-4-methyl-3-oxo-3,4-dihydroquinoxalin-5-yl)oxy)ethyl)amino)methyl)-2-oxooxazolidin-3-yl)-2H-pyrazino[2,3-b][1,4]oxazin-3(4H)-one] |  |  |  |  |  |  | 0.06 µg/mL (≈ 0.124 µM) | 0.06 µg/mL (≈ 0.124 µM) | 0.03 µg/mL (≈ 0.0618 µM) | 0.06 µg/mL (≈ 0.124 µM) | 0.125 µg/mL (≈ 0.258 µM) | 0.06 µg/mL (≈ 0.124 µM) | 0.03 µg/mL (≈ 0.0618 µM) | 0.5 µg/mL (≈ 1.03 µM) | 0.25 µg/mL (≈ 0.515 µM) | ≤ 0.015 µg/mL |  |  | 58 µM
Cc1nc2ccc(F)c(OCCNC[C@H]3CN(c4cnc5c(n4)NC(=O)CO5)C(=O)O3)c2n(C)c1=O [Compound 9, (S)-6-(5-(((2-((6-fluoro-2,4-dimethyl-3-oxo-3,4-dihydroquinoxalin-5-yl)oxy)ethyl)amino)methyl)-2-oxooxazolidin-3-yl)-2H-pyrazino[2,3-b][1,4]oxazin-3(4H)-one] |  |  |  |  |  |  | 0.125 µg/mL (≈ 0.25 µM) | 0.25 µg/mL (≈ 0.501 µM) | 0.125 µg/mL (≈ 0.25 µM) | 0.25 µg/mL (≈ 0.501 µM) | 1 µg/mL (≈ 2 µM) | 0.5 µg/mL (≈ 1 µM) | 0.5 µg/mL (≈ 1 µM) | 4 µg/mL (≈ 8.01 µM) | 2 µg/mL (≈ 4 µM) | ≤ 0.06 µg/mL | 40 nM |  | 
